{"source": "ChEMBL document CHEMBL1157758", "about": "“Structural and stereochemical requirements of the spiroketal group of hippuristanol for antiproliferative activity” (Bioorg Med Chem Lett, 2010)"}
{"tested_on": "HeLa", "test": "Antiproliferative activity against human HeLa cells by [3H]thymidine incorporation", "type": "functional, cell-based", "units": {"IC50": "µM"}}
{"smiles": "CC1(C)CO[C@@]2(C1)O[C@H]1C[C@H]3[C@@H]4CC[C@H]5C[C@H](O)CC[C@]5(C)[C@H]4[C@@H](O)C[C@]3(C)[C@H]1[C@@]2(C)O", "IC50": "> 10"}
{"smiles": "CC1(C)C[C@@]2(O[C@H]3C[C@H]4[C@@H]5CC[C@H]6C[C@H](O)CC[C@]6(C)[C@H]5[C@@H](O)C[C@]4(C)[C@H]3[C@]2(C)O)OC1(C)C", "IC50": "> 10"}
{"smiles": "CC1(C)CO[C@]2(C1)O[C@H]1C[C@H]3[C@@H]4CC[C@H]5C[C@H](O)CC[C@]5(C)[C@H]4[C@@H](O)C[C@]3(C)[C@H]1[C@@]2(C)O", "IC50": "> 10"}
{"smiles": "CC1(C)C[C@]2(O[C@H]3C[C@H]4[C@@H]5CC[C@H]6C[C@H](O)CC[C@]6(C)[C@H]5[C@@H](O)C[C@]4(C)[C@H]3[C@@]2(C)O)OC1(C)C", "IC50": 2.2}
{"smiles": "CCC1(CC)CC[C@@]2(O[C@H]3C[C@H]4[C@@H]5CC[C@H]6C[C@H](O)CC[C@]6(C)[C@H]5[C@@H](O)C[C@]4(C)[C@H]3[C@@]2(C)O)O1", "IC50": 3.6}
{"smiles": "C[C@]12CC[C@@H](O)C[C@@H]1CC[C@@H]1[C@@H]2[C@@H](O)C[C@@]2(C)[C@H]1C[C@@H]1O[C@@]3(CCCCO3)[C@](C)(O)[C@@H]12", "IC50": 1.6}
{"smiles": "C[C@]12CC[C@@H](O)C[C@@H]1CC[C@@H]1[C@@H]2[C@@H](O)C[C@@]2(C)[C@H]1C[C@@H]1O[C@]3(CCCCO3)[C@](C)(O)[C@@H]12", "IC50": "> 10"}
{"smiles": "CC1(C)CCC[C@@]2(O[C@H]3C[C@H]4[C@@H]5CC[C@H]6C[C@H](O)CC[C@]6(C)[C@H]5[C@@H](O)C[C@]4(C)[C@H]3[C@@]2(C)O)O1", "IC50": 0.6}
{"smiles": "CCC1(CC)CC[C@]2(O[C@H]3C[C@H]4[C@@H]5CC[C@H]6C[C@H](O)CC[C@]6(C)[C@H]5[C@@H](O)C[C@]4(C)[C@H]3[C@@]2(C)O)O1", "IC50": "> 10"}
{"smiles": "CC1(C)CCC[C@]2(O[C@H]3C[C@H]4[C@@H]5CC[C@H]6C[C@H](O)CC[C@]6(C)[C@H]5[C@@H](O)C[C@]4(C)[C@H]3[C@@]2(C)O)O1", "IC50": 4.9}
{"smiles": "CC1(C)C[C@@]2(O[C@H]3C[C@H]4[C@@H]5CC[C@H]6C[C@H](O)CC[C@]6(C)[C@H]5[C@@H](O)C[C@]4(C)[C@H]3[C@@]2(C)O)OC1(C)C", "IC50": 0.2}
{"smiles": "C[C@H]1C[C@@]2(O[C@H]3C[C@H]4[C@@H]5CC[C@H]6C[C@H](O)CC[C@]6(C)[C@H]5[C@@H](O)C[C@]4(C)[C@H]3[C@@]2(C)O)OC1(C)C", "note": "[HIPPURISTANOL]", "IC50": 0.07}
